{"source": "patent US8871681B2", "about": "“Herbicidal compositions comprising 4-amino-3-chloro-5-fluoro-6-(4-chloro-2-fluoro-3-methoxyphenyl) pyridine-2-carboxylic acid or a derivative thereof and certain sulfonylureas” (Dow AgroSciences LLC, priority 2012, dated 2014)", "key": {"[1]": {"system": "BRAPP (Brachiaria platyphylla, broadleaf signalgrass)", "assay": "Postemergence foliar-applied weed control, direct seeded rice, greenhouse (Example I)", "format": "in vivo, Brachiaria platyphylla (Griseb.) Nash", "conditions": "Urochloa platyphylla, post-emergence, 504 h, read-out: Visual Weed Control (%) Obs, 21 DAA", "source_text": "(§1) Seeds or nutlets of the desired test plant species were planted in a soil matrix prepared by mixing a loam or sandy loam soil (e.g., 28.6 percent silt, 18.8 percent clay, and 52.6 percent sand, with a pH of about 5.8 and an organic matter content of about 1.8 percent) and calcareous grit in an 80 to 20 ratio. The soil matrix was contained in plastic pots with a volume of 1 quart and a surface area of 83.6 square centimeters (cm^2). When required to ensure good germination and healthy plants, a fungicide treatment and/or other chemical or physical treatment was applied. The plants were grown for 8-22 days in a greenhouse with an approximate 14 h photoperiod which was maintained at about 29° C. during the day and 26° C. during the night. Nutrients (Peters Excel® 15-5-15 5-Ca 2-Mg and iron chelate) were applied in the irrigation solution as needed and water was added on a regular basis. Supplemental lighting was provided with overhead metal halide 1000-Watt lamps as necessary. The plants were employed for testing when they reached the first through fourth true leaf stage.\n(§2) Treatments consisted of the acid or esters of 4-amino-3-chloro-5-fluoro-6-(4-chloro-2-fluoro-3-methoxy-phenyl)pyridine-2-carboxylic acid (Compound A), each formulated as an SC, and various herbicidal components alone and in combination. Forms of compound A were applied on an acid equivalent basis.\n(§3) Other herbicidal components were applied on an active ingredient basis and included acetolactate synthase (ALS)-inhibiting herbicides (sulfonylurea chemical class) azimsulfuron formulated as Gulliver®, bensulfuron-methyl formulated as Londax® 60DF, cyclosulfamuron (technical material), ethoxysulfuron formulated as Sunrice® 15 WDG, flazasulfuron formulated as Katana®, flucetosulfuron formulated as Sukedachi® 1KG G, foramsulfuron formulated as Option®, imazosulfuron formulated as Brazzos® WG, iodosulfuron-methyl-sodium formulated as Hussar®, metsulfuron-methyl formulated as Lorate®, nicosulfuron formulated as Accent®, orthosulfamuron formulated as Strada® WG, primisulfuron-methyl (technical material), propyrisulfuron formulated as Zeta One®, rimsulfuron formulated as Matrix® WG, sulfometuron-methyl formulated as Oust®, and trifloxysulfuron-sodium formulated as Monument® 75WG.\n(§4) Treatment requirements were calculated based upon the rates being tested, the concentration of active ingredient or acid equivalent in the formulation, and a 12 mL application volume at a rate of 187 L/ha.\n(§5) For treatments comprised of formulated compounds, measured amounts of compounds were placed individually in 25 mL glass vials and diluted in a volume of 1.25% (v/v) Agri-Dex® crop oil concentrated to obtain 12× stock solutions. […] Application solutions were prepared by adding an appropriate amount of each stock solution (e.g., 1 mL) and diluted to the appropriate final concentrations with the addition of 10 mL of an aqueous mixture of 1.25% (v/v) crop oil concentrate so that the final spray solutions contained 1.25+/−0.05% (v/v) Agrcrop oil concentrate.\n(§6) For treatments comprised of formulated and technical compounds, weighed amounts of the technical materials were placed individually in 25 mL glass vials and dissolved in a volume of 97:3 v/v acetone/DMSO to obtain 12× stock solutions, and measured amounts of the formulated compounds were placed individually in 25 mL glass vials and diluted in a volume of 1.25% (v/v) crop oil concentrate to obtain 12× stock solutions. […] Application solutions were prepared by adding an appropriate amount of each stock solution (e.g., 1 mL) and diluted to the appropriate final concentrations with the addition of an appropriate amount of an aqueous mixture of 1.5% (v/v) crop oil concentrate so that the final spray solutions contained 1.25% (v/v) crop oil concentrate. […]"}, "[2]": {"system": "ECHCG (Echinochloa crusgalli, barnyardgrass)", "assay": "Postemergence foliar-applied weed control, direct seeded rice, greenhouse (Example I)", "format": "in vivo, Echinochloa crusgalli (L.) Beauv.", "conditions": "27 DAA", "source_text": "as §1, §2, §3, §4, §5, §6"}, "[3]": {"system": "ECHOR (Echinochloa oryzoides, early watergrass)", "assay": "In-water applied weed control, transplanted paddy rice, greenhouse (Example II)", "format": "in vivo, Echinochloa oryzoides (Ard.) Fritsch", "procedure": "(§7) Weed seeds or nutlets of the desired test plant species were planted in puddled soil (mud) prepared by mixing a shredded, non-sterilized mineral soil (50.5 percent silt, 25.5 percent clay, and 24 percent sand, with a pH of about 7.6 and an organic matter content of about 2.9 percent) and water at a 1:1 volumetric ratio. The prepared mud was dispensed in 365 mL aliquots into 16-ounce (oz.) non-perforated plastic pots with a surface area of 86.59 square centimeters (cm^2) leaving a headspace of 3 centimeters (cm) in each pot. Rice seeds were planted in Sun Gro MetroMix® 306 planting mixture, which typically has a pH of 6.0 to 6.8 and an organic matter content of about 30 percent, in plastic plug trays. Seedlings at the second or third leaf stage of growth were transplanted into 860 mL of mud contained in 32-oz. non-perforated plastic pots with a surface area of 86.59 cm^2 4 days prior to herbicide application. The paddy was created by filling the headspace of the pots with 2.5 to 3 cm of water. When required to ensure good germination and healthy plants, a fungicide treatment and/or other chemical or physical treatment was applied. The plants were grown for 4-22 days in a greenhouse with an approximate 14 h photoperiod which was maintained at about 29′C during the day and 26° C. during the night. Nutrients were added as Osmocote® (19:6:12, N:P:K+minor nutrients) at 2 g per 16-oz. pot and 4 g per 32-oz. pot. Water was added on a regular basis to maintain the paddy flood, and supplemental lighting was provided with overhead metal halide 1000-Watt lamps as necessary. The plants were employed for testing when they reached the first through fourth true leaf stage.\n(§8) Treatments consisted of the acid or esters of 4-amino-3-chloro-5-fluoro-6-(4-chloro-2-fluoro-3-methoxy-phenyl)pyridine-2-carboxylic acid (compound A) each formulated as an SC and various herbicidal components alone and in combination. Forms of compound A were applied on an acid equivalent basis.\n(§9) Other herbicidal components were applied on an active ingredient basis and included acetolactate synthase (ALS)-inhibiting herbicides (sulfonylurea chemical class), azimsulfuron formulated as Gulliver®, bensulfuron-methyl formulated as Londax® 60DF, cyclosulfamuron (technical grade materail), ethoxysulfuron formulated as Sunrice® 15 WDG, flucetosulfuron formulated as Sukedachi® 1KG G, imazosulfuron formulated as Brazzos®, metsulfuron-methyl formulated as Lorate®, nicosulfuron formulated as Accent®, orthosulfamuron formulated as Strada® WG, propyrisulfuron formulated as Zeta One®, and rimsulfuron formulated as Matrix® WG.\n(§10) Treatment requirements for each compound or herbicidal component were calculated based upon the rates being tested, the concentration of active ingredient or acid equivalent in the formulation, an application volume of 2 mL per component per pot, and an application area of 86.59 cm^2 per pot.\n(§11) For formulated compounds, a measured amount was placed in an individual 100 or 200 mL glass vial and was dissolved in a volume of 1.25% (v/v) Agri-Dex® crop oil concentrate to obtain application solutions.\n(§12) For technical grade compounds, a weighed amount was placed in an individual 100 to 200 mL glass vial and was dissolved in a volume of acetone to obtain concentrated stock solutions. […] The concentrated stock solutions obtained were diluted with an equivalent volume of an aqueous mixture containing 2.5% (v/v) crop oil concentrate so that the final application solutions contained 1.25% (v/v) crop oil concentrate.\n(§13) Applications were made by injecting with a pipetter appropriate amounts of the application solutions, individually and sequentially, into the aqueous layer of the paddy. Control plants were treated in the same manner with the solvent blank. Applications were made so that all treated plant material received the same concentrations of acetone and crop oil concentrate. […]"}, "[4]": {"system": "SCPMA (Bolboschoenus maritimus or Schoenoplectus maritimus, sea clubrush)", "assay": "In-water applied weed control, transplanted paddy rice, greenhouse (Example II)", "format": "in vivo, Bolboschoenus maritimus (L.) Palla", "procedure": "as §7, §8, §9, §10, §11, §12, §13"}, "[5]": {"system": "VERPE (Veronica persica, bird's-eye speedwell)", "assay": "Post-emergence foliar-applied weed control in cereal crops, greenhouse (Example III)", "format": "in vivo, Veronica persica Poir.", "procedure": "(§14) Seeds of the desired test plant species were planted in Sun Gro MetroMix® 306 planting mixture, which typically has a pH of 6.0 to 6.8 and an organic matter content of about 30 percent, in plastic pots with a surface area of 103.2 square centimeters (cm^2). When required to ensure good germination and healthy plants, a fungicide treatment and/or other chemical or physical treatment was applied. The plants were grown for 7-36 days in a greenhouse with an approximate 14 hour photoperiod which was maintained at about 18° C. during the day and 17° C. during the night. Nutrients and water were added on a regular basis and supplemental lighting was provided with overhead metal halide 1000-Watt lamps as necessary. The plants were employed for testing when they reached the second or third true leaf stage.\n(§15) Treatments consisted of the benzyl ester of 4-amino-3-chloro-5-fluoro-6-(4-chloro-2-fluoro-3-methoxy-phenyl)pyridine-2-carboxylic acid (Compound A), formulated as an SC (suspension concentrate), and a second cereal herbicide alone and in combination.\n(§16) Measured aliquot of benzyl ester of 4-amino-3-chloro-5-fluoro-6-(4-chloro-2-fluoro-3-methoxy-phenyl)pyridine-2-carboxylic acid (Compound A) was placed in 25 milliliter (mL) glass vials and diluted in a volume of 1.25% (v/v) Agri-dex crop oil concentrated to obtain stock solutions. Compound requirements are based upon a 12 mL application volume at a rate of 187 liters per hectare (L/ha). Spray solutions of the second cereal herbicide and experimental compound mixtures were prepared by adding the stock solutions to the appropriate amount of dilution solution to form 12 mL spray solution with active ingredients in two- and three-way combinations. Formulated compounds were applied to the plant material with an overhead Mandel track sprayer equipped with an 8002E nozzle calibrated to deliver 187 L/ha over an application area of 0.503 square meters (m^2) at a spray height of 18 inches (46 cm) above average plant canopy. Control plants were sprayed in the same manner with the solvent blank.\n(§17) The treated plants and control plants were placed in a greenhouse as described above and watered by sub-irrigation to prevent wash-off of the test compounds. After 20-22 days, the condition of the test plants as compared with that of the control plants was determined visually and scored on a scale of 0 to 100 percent where 0 corresponds to no injury and 100 corresponds to complete kill.\n(§18) Colby's equation was used to determine the herbicidal effects expected from the mixtures (Colby, S. R. 1967. Calculation of the synergistic and antagonistic response of herbicide combinations. Weeds 15:20-22.).\n(§19) The following equation was used to calculate the expected activity of mixtures containing two active ingredients, A and B: Expected=A+B−(A×B/100)"}, "[6]": {"system": "CIRAR (Cirsium arvense, Canada thistle)", "assay": "Post-emergence foliar-applied weed control in cereal crops, greenhouse (Example III)", "format": "in vivo, Cirsium arvense (L.) Scop.", "conditions": "foliar-applied, after 20-22 days", "procedure": "as §14, §15, §16, §17, §18, §19"}, "[7]": {"system": "MATCH (Chamomilla chamomilla, scented mayweed)", "assay": "Post-emergence foliar-applied weed control in cereal crops, greenhouse (Example III)", "format": "in vivo, Chamomilla chamomilla (L.) Rydb.", "procedure": "as §14, §15, §16, §17, §18, §19"}, "[8]": {"conditions": "Table 55, after 20-22 days, 3 gai/ha alone"}}}
{"smiles": "CCCCOC(=O)c1nc(-c2ccc(Cl)c(OC)c2F)c(F)c(N)c1Cl", "note": "[Compound A n-Butyl Ester]", "values": [{"measurement": "pest or weed control at 4.38 g/ha", "setting": "[1]; 4.38 gae/ha", "value": 0, "unit": "%"}, {"measurement": "pest or weed control at 8.75 g/ha", "setting": "[1]; 8.75 gae/ha", "value": 40, "unit": "%"}, {"measurement": "Visual Weed Control (%) Obs", "setting": "[2]; 4.38 gae/ha", "value": 0, "unit": "%"}, {"measurement": "Visual Weed Control (%) Obs", "setting": "[2]; 8.75 gae/ha", "value": 0, "unit": "%"}, {"measurement": "Visual Weed Control (%) - 20 DAA ECHOR Obs", "setting": "[3]; Table 30, 35 gae/ha alone", "value": 28, "unit": "%"}, {"measurement": "Visual Weed Control (%) - 20 DAA ECHOR Obs", "setting": "[3]; Table 30, 70 gae/ha alone", "value": 45, "unit": "%"}, {"measurement": "Visual Weed Control (%) - 20 DAA SCPMA Obs", "setting": "[4]; Table 40, 35 gae/ha alone", "value": 0, "unit": "%"}, {"measurement": "Visual Weed Control (%) - 20 DAA SCPMA Obs", "setting": "[4]; Table 40, 70 gae/ha alone", "value": 0, "unit": "%"}]}
{"smiles": "COC(=O)c1ccc(C(F)(F)F)nc1S(=O)(=O)NC(=O)Nc1nc(OC)cc(OC)n1", "note": "[Flupyrsulfuron-methyl sodium]", "values": [{"measurement": "Weed Control VERPE Obs", "setting": "[5]; Table 53, after 20-22 days, 5 gai/ha alone", "value": 0, "unit": "%"}, {"measurement": "pest or weed control at 5 g/ha", "setting": "[6]; Cirsium arvense, post-emergence, Table 53, 5 gai/ha alone, read-out: Weed Control CIRAR Obs", "value": 75, "unit": "%"}]}
{"smiles": "COC(=O)c1ccc(CNS(C)(=O)=O)cc1S(=O)(=O)NC(=O)Nc1nc(OC)cc(OC)n1", "note": "[Mesosulfuron-methyl]", "values": [{"measurement": "Weed Control VERPE Obs", "setting": "[5]; [8]", "value": 5, "unit": "%"}, {"measurement": "Weed Control CIRAR Obs", "setting": "[6]; Table 55, 3 gai/ha alone", "value": 78, "unit": "%"}, {"measurement": "Weed Control MATCH Obs", "setting": "[7]; [8]", "value": 40, "unit": "%"}]}
{"smiles": "COC(=O)c1ccccc1S(=O)(=O)NC(=O)N(C)c1nc(C)nc(OC)n1", "note": "[Tribenuron-methyl]", "values": [{"measurement": "pest or weed control at 2.2 g/ha", "setting": "[6]; Cirsium arvense, post-emergence, Table 59 (cereal), 2.2 gai/ha alone, read-out: Weed Control CIRAR Obs", "value": 50, "unit": "%"}, {"measurement": "Weed Control MATCH Obs", "setting": "[7]; Table 59 (cereal), after 20-22 days, 2.2 gai/ha alone", "value": 90, "unit": "%"}]}
